Laboratory results: PubChem BioAssay AID330 (DTP/NCI, 2004)
“And” between values parts separate entries of the source, which are not always exact repeats. Equal entries are not always repeated. Toxic doses and inconclusive results are not listed. The calls were made as follows: active = survival T/C of 150% or more; inactive = T/C below 125% in these data. Peptide text beside a SMILES is read from it. * marks the point of attachment. Cbz = O=C(OCc1ccccc1)*

Test system: P388 leukemia ip, CD2F1 mice, survival T/C
Test: NCI In Vivo Anticancer Drug Screen. Data for tumor model P388 Leukemia (intraperitoneal) in CD2F1 (CDF1) mice
Conditions: endpoint: median survival time, higher = longer survival
How it was run: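 Mice carrying the transplanted tumor received test compound or vehicle. Survival was recorded in each group, and the value is the treated-group measurement divided by that of the vehicle-treated control group.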

[1] = dose: 50.0 mg/kg/injection, schedule: Q01DX005 (ip), vehicle: Klucel (hydroxypropylcellulose) (HPC)
[2] = dose: 100.0 mg/kg/injection, schedule: Q01DX005 (ip), vehicle: Klucel (hydroxypropylcellulose) (HPC)
[3] = dose: 200.0 mg/kg/injection, schedule: Q01DX005 (ip), vehicle: Klucel (hydroxypropylcellulose) (HPC)
[4] = dose: 12.5 mg/kg/injection, schedule: Q01DX009 (ip), vehicle: Klucel (hydroxypropylcellulose) (HPC)
[5] = dose: 25.0 mg/kg/injection, schedule: Q01DX009 (ip), vehicle: Klucel (hydroxypropylcellulose) (HPC)
[6] = dose: 50.0 mg/kg/injection, schedule: Q01DX009 (ip), vehicle: Klucel (hydroxypropylcellulose) (HPC)
[7] = dose: 100.0 mg/kg/injection, schedule: Q01DX009 (ip), vehicle: Klucel (hydroxypropylcellulose) (HPC)
[8] = dose: 100.0 mg/kg/injection, schedule: Q04DX003 (ip), vehicle: Klucel (hydroxypropylcellulose) (HPC)
[9] = dose: 50.0 mg/kg/injection, schedule: Q01DX009 (ip), vehicle: suspension in saline
[10] = dose: 100.0 mg/kg/injection, schedule: Q01DX009 (ip), vehicle: suspension in saline
[11] = dose: 50.0 mg/kg/injection, schedule: Q01DX005 (ip), vehicle: saline with Tween-80
[12] = dose: 100.0 mg/kg/injection, schedule: Q01DX005 (ip), vehicle: saline with Tween-80
[13] = dose: 200.0 mg/kg/injection, schedule: Q01DX005 (ip), vehicle: saline with Tween-80
[14] = dose: 60.0 mg/kg/injection, schedule: Q01DX005 (ip), vehicle: saline with Tween-80
[15] = dose: 120.0 mg/kg/injection, schedule: Q01DX005 (ip), vehicle: saline with Tween-80
[16] = dose: 240.0 mg/kg/injection, schedule: Q01DX005 (ip), vehicle: saline with Tween-80
[17] = dose: 60.0 mg/kg/injection, schedule: Q01DX005 (ip), vehicle: Klucel (hydroxypropylcellulose) (HPC)
[18] = dose: 120.0 mg/kg/injection, schedule: Q01DX005 (ip), vehicle: Klucel (hydroxypropylcellulose) (HPC)

Measured: T/C

C=CC(C)CC(N)C(=O)O (stereo unspecified)
inactive: dose: 60.0 mg/kg/injection, schedule: Q01DX005 (ip), vehicle: saline 123 % of control | dose: 120.0 mg/kg/injection, schedule: Q01DX005 (ip), vehicle: saline 105 % of control | dose: 240.0 mg/kg/injection, schedule: Q01DX005 (ip), vehicle: saline 104 % of control

O=C(N/N=C/c1ccccn1)c1ccccc1[O-].O=C(N/N=C/c1ccccn1)c1ccccc1[O-].[Mn+2]
inactive: [1] 103 % of control | [2] 101 % of control | [3] 107 % of control

COc1cc2ccc(CCNCc3ccccc3)cc2cc1OC
inactive: [4] 95 % of control | [5] 94 % of control | [6] 95 % of control | [7] 90 % of control

COC(=O)c1cc2c3c(ccc2[nH]1)N(C(=O)c1cc2c4c(ccc2[nH]1)N(C(=O)c1cc2c5c(ccc2[nH]1)N(C(N)=O)CC5)CC4)CC3
inactive: dose: 12.5 mg/kg/injection, schedule: Q01DX005 (ip), vehicle: DMSO 110 % of control | dose: 25.0 mg/kg/injection, schedule: Q01DX005 (ip), vehicle: DMSO 111 % of control | dose: 50.0 mg/kg/injection, schedule: Q01DX005 (ip), vehicle: DMSO 105 % of control | dose: 100.0 mg/kg/injection, schedule: Q01DX005 (ip), vehicle: DMSO 112 % of control

CCCCCCCCCCCCCCCCCCOCC(O)CO (stereo unspecified)
inactive: dose: 25.0 mg/kg/injection, schedule: Q01DX009 (ip), vehicle: saline + alcohol 91 % of control | dose: 50.0 mg/kg/injection, schedule: Q01DX009 (ip), vehicle: saline + alcohol 92 % of control | dose: 100.0 mg/kg/injection, schedule: Q01DX009 (ip), vehicle: saline + alcohol 94 % of control | dose: 200.0 mg/kg/injection, schedule: Q01DX009 (ip), vehicle: saline + alcohol 100 % of control | dose: 400.0 mg/kg/injection, schedule: Q01DX009 (ip), vehicle: saline + alcohol 100 % of control

COc1ccc([N+]([O-])=NC#N)cc1
inactive: [4] 95 % of control | [5] 98 % of control | [6] 109 % of control | dose: 50.0 mg/kg/injection, schedule: Q04DX003 (ip), vehicle: Klucel (hydroxypropylcellulose) (HPC) 99 % of control | [8] 100 % of control

COC(=O)/C=C/NC(=O)c1ccccc1C(=O)OC
inactive: dose: 25.0 mg/kg/injection, schedule: Q01DX009 (ip), vehicle: suspension in saline 98 % of control | [9] 100 % of control | [10] 100 % of control | dose: 200.0 mg/kg/injection, schedule: Q01DX009 (ip), vehicle: suspension in saline 100 % of control

O=C(O)/C=C/c1c(-c2ccccc2)sc2ccccc2c1=O
inactive: dose: 100.0 mg/kg/injection, schedule: Q04DX002 (ip), vehicle: saline with Tween-80 93 % of control | dose: 200.0 mg/kg/injection, schedule: Q04DX002 (ip), vehicle: saline with Tween-80 97 % of control | dose: 400.0 mg/kg/injection, schedule: Q04DX002 (ip), vehicle: saline with Tween-80 97 % of control

CC(=O)Nc1ccc(C(=O)CCl)c(Cl)c1
inactive: [4] 104 % of control | [5] 107 % of control

Cc1nc2cc(C)[nH]c(=O)n2n1
inactive: [11] 105 % of control | [12] 107 % of control | [13] 104 % of control

CCOC(=O)C(Cc1ccccc1)P(=O)(OCC)OCC (stereo unspecified)
inactive: dose: 100.0 mg/kg/injection, schedule: Q01DX001 (ip), vehicle: saline 95 % of control | dose: 200.0 mg/kg/injection, schedule: Q01DX001 (ip), vehicle: saline 100 % of control | dose: 400.0 mg/kg/injection, schedule: Q01DX001 (ip), vehicle: saline 91 % of control

CCCCCCC[CH2][Sn]([CH2]CCCCCCC)([NH]S(=O)(=O)c1ccc(C)cc1)[NH]S(=O)(=O)c1ccc(C)cc1
inactive: dose: 25.0 mg/kg/injection, schedule: Q04DX003 (ip), vehicle: saline sonified 100 % of control | dose: 50.0 mg/kg/injection, schedule: Q04DX003 (ip), vehicle: saline sonified 122 % of control | dose: 100.0 mg/kg/injection, schedule: Q04DX003 (ip), vehicle: saline sonified 100 % of control

O=C(Nc1ccc(Cl)cc1)Nc1nnc(COc2ccc(Cl)c(Cl)c2)o1
inactive: dose: 15.0 mg/kg/injection, schedule: Q01DX005 (ip), vehicle: saline with Tween-80 87 % of control and 90 % of control | dose: 30.0 mg/kg/injection, schedule: Q01DX005 (ip), vehicle: saline with Tween-80 90 % of control | [14] 89 % of control and 93 % of control | [15] 98 % of control | [16] 91 % of control

Cc1cc(-c2c(C)[nH]n(-c3cc(C)c4cc(F)ccc4n3)c2=O)n(-c2cc(C)c3cc(F)ccc3n2)n1
inactive: [14] 102 % of control | [15] 101 % of control | [16] 98 % of control

CNC(=O)OCc1c(COC(=O)NC)c(C(F)(F)F)n2c1CCC2
inactive: [6] 117 % of control | [7] 116 % of control

Cn1cnc2cc(N3CCOCC3)c([N+](=O)[O-])cc2c1=O
inactive: [8] 105 % of control | dose: 200.0 mg/kg/injection, schedule: Q04DX003 (ip), vehicle: Klucel (hydroxypropylcellulose) (HPC) 112 % of control | dose: 400.0 mg/kg/injection, schedule: Q04DX003 (ip), vehicle: Klucel (hydroxypropylcellulose) (HPC) 95 % of control

CC1(C)CC2([Si](C)(C)C)C(=O)NC(=O)NC12 (stereo unspecified)
inactive: dose: 12.5 mg/kg/injection, schedule: Q01DX005 (ip), vehicle: Klucel (hydroxypropylcellulose) (HPC) 105 % of control | dose: 25.0 mg/kg/injection, schedule: Q01DX005 (ip), vehicle: Klucel (hydroxypropylcellulose) (HPC) 99 % of control | [1] 99 % of control | [2] 97 % of control

NC(=O)C(O)C1OC(COCc2ccccc2)C(OCc2ccccc2)C1OCc1ccccc1 (stereo unspecified)
inactive: dose: 12.5 mg/kg/injection, schedule: Q01DX009 (ip), vehicle: distilled water + Tween-80 90 % of control and 104 % of control | dose: 25.0 mg/kg/injection, schedule: Q01DX009 (ip), vehicle: distilled water + Tween-80 92 % of control and 95 % of control | dose: 50.0 mg/kg/injection, schedule: Q01DX009 (ip), vehicle: distilled water + Tween-80 106 % of control and 100 % of control | dose: 100.0 mg/kg/injection, schedule: Q01DX009 (ip), vehicle: distilled water + Tween-80 100 % of control and 89 % of control | dose: 200.0 mg/kg/injection, schedule: Q01DX009 (ip), vehicle: distilled water + Tween-80 104 % of control and 97 % of control

Cc1ccc(S(=O)(=O)OCC2(COS(=O)(=O)c3ccc(C)cc3)CCC2)cc1
inactive: [14] 102 % of control | [15] 100 % of control | [16] 100 % of control

CC(=O)c1ccc[n+](Cc2ccc([N+](=O)[O-])cc2)c1
inactive: dose: 25.0 mg/kg/injection, schedule: Q01DX009 (ip), vehicle: saline with Tween-80 95 % of control | dose: 50.0 mg/kg/injection, schedule: Q01DX009 (ip), vehicle: saline with Tween-80 100 % of control | dose: 100.0 mg/kg/injection, schedule: Q01DX009 (ip), vehicle: saline with Tween-80 90 % of control

CC(C(=O)NN)C(C)(C)C (stereo unspecified)
inactive: dose: 100.0 mg/kg/injection, schedule: Q01DX001 (ip), vehicle: saline with Tween-80 96 % of control | dose: 200.0 mg/kg/injection, schedule: Q01DX001 (ip), vehicle: saline with Tween-80 99 % of control | dose: 400.0 mg/kg/injection, schedule: Q01DX001 (ip), vehicle: saline with Tween-80 99 % of control

CCC(C)C(NC(=O)OCc1ccccc1)C(=O)NC(CC(C)C)C(=O)O (stereo not drawn) (Cbz-Ile-Leu-OH; configuration not given here)
inactive: [1] 114 % of control | [2] 99 % of control | [3] 99 % of control

O=c1oc2nc(-c3ccccc3)[nH]c(=O)c2c(O)c1-c1ccccc1
inactive: [17] 96 % of control | [18] 96 % of control

O=S1(=O)N=C(Sc2nc3ccccc3s2)c2ccccc21
inactive: [11] 102 % of control | [12] 107 % of control | [13] 117 % of control

Cc1cc(O)cc(=O)n1CCc1ccccc1
inactive: [17] 88 % of control | [18] 94 % of control | dose: 240.0 mg/kg/injection, schedule: Q01DX005 (ip), vehicle: Klucel (hydroxypropylcellulose) (HPC) 96 % of control

COc1ccc(CSC(=S)Nc2ccc(F)c(C)c2)cc1
inactive: [9] 99 % of control | [10] 99 % of control
